Data: PubChem BioAssay (NCI)
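48-hour exposure; five concentrations; linearly interpolated endpoints. Here, GI50 denotes the concentration required for 50% inhibition of growth. Definition used: TGI = concentration required for complete inhibition of growth.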

Tests used:
Test in all cases: inhibition of tumour cell growth, NCI panel, 48 h
786-0 renal = system: 786-0 renal
A498 renal = system: A498 renal
A549 NSCLC = system: A549 NSCLC
ACHN renal = system: ACHN renal
BT-549 breast = system: BT-549 breast
CAKI-1 renal = system: CAKI-1 renal
CCRF-CEM leukemia = system: CCRF-CEM leukemia
COLO 205 colon = system: COLO 205 colon
DU-145 prostate = system: DU-145 prostate
EKVX NSCLC = system: EKVX NSCLC
HCC-2998 colon = system: HCC-2998 colon
HCT-116 colon = system: HCT-116 colon
HCT-15 colon = system: HCT-15 colon
HL-60(TB) leukemia = system: HL-60(TB) leukemia
HOP-62 NSCLC = system: HOP-62 NSCLC
HOP-92 NSCLC = system: HOP-92 NSCLC
HS 578T breast = system: HS 578T breast
HT29 colon = system: HT29 colon
K-562 leukemia = system: K-562 leukemia
KM12 colon = system: KM12 colon
LOX IMVI melanoma = system: LOX IMVI melanoma
M14 melanoma = system: M14 melanoma
MALME-3M melanoma = system: MALME-3M melanoma
MCF7 breast = system: MCF7 breast
MDA-MB-231 breast = system: MDA-MB-231 breast
MDA-MB-435 = system: MDA-MB-435
MDA-N = system: MDA-N
MOLT-4 leukemia = system: MOLT-4 leukemia
NCI-H226 lung = system: NCI-H226 lung
NCI-H23 lung = system: NCI-H23 lung
NCI-H460 lung = system: NCI-H460 lung
NCI-H522 lung = system: NCI-H522 lung
NCI/ADR-RES ovarian = system: NCI/ADR-RES ovarian
OVCAR-3 ovarian = system: OVCAR-3 ovarian
OVCAR-4 ovarian = system: OVCAR-4 ovarian
OVCAR-5 ovarian = system: OVCAR-5 ovarian
OVCAR-8 ovarian = system: OVCAR-8 ovarian
PC-3 prostate = system: PC-3 prostate
RPMI-8226 leukemia = system: RPMI-8226 leukemia
RXF 393 renal = system: RXF 393 renal
SF-268 CNS = system: SF-268 CNS
SF-295 CNS = system: SF-295 CNS
SF-539 CNS = system: SF-539 CNS
SK-MEL-2 melanoma = system: SK-MEL-2 melanoma
SK-MEL-28 melanoma = system: SK-MEL-28 melanoma
SK-MEL-5 melanoma = system: SK-MEL-5 melanoma
SK-OV-3 ovarian = system: SK-OV-3 ovarian
SN12C renal = system: SN12C renal
SNB-19 CNS = system: SNB-19 CNS
SNB-75 CNS = system: SNB-75 CNS
SR leukemia = system: SR leukemia
SW-620 colon = system: SW-620 colon
T-47D breast = system: T-47D breast
TK-10 renal = system: TK-10 renal
U251 CNS = system: U251 CNS
UACC-257 melanoma = system: UACC-257 melanoma
UACC-62 melanoma = system: UACC-62 melanoma
UO-31 renal = system: UO-31 renal
IGROV1 ovarian = system: IGROV1 ovarian

Structure (SMILES): O=C(N1CCN(c2ccccc2)CC1)N(C(=O)C1(c2ccc(Cl)cc2)CCCC1)S(=O)(=O)c1ccccc1
- TGI (786-0 renal): > 100 µM
- TGI (A498 renal): 0.429 µM
- TGI (A549 NSCLC): > 100 µM
- TGI (ACHN renal): 45.6 µM
- TGI (BT-549 breast): 80.2 µM
- TGI (CAKI-1 renal): 71.4 µM
- TGI (CCRF-CEM leukemia): > 100 µM
- TGI (COLO 205 colon): 60.3 µM
- TGI (DU-145 prostate): > 100 µM
- TGI (EKVX NSCLC): 58.2 µM
- TGI (HCC-2998 colon): 58.5 µM
- TGI (HCT-116 colon): 52.7 µM
- TGI (HCT-15 colon): 80.1 µM
- TGI (HL-60(TB) leukemia): 68.1 µM
- TGI (HOP-62 NSCLC): 88.6 µM
- TGI (HOP-92 NSCLC): 74.4 µM
- TGI (HS 578T breast): 88.2 µM
- TGI (HT29 colon): 75.8 µM
- TGI (K-562 leukemia): > 100 µM
- TGI (KM12 colon): > 100 µM
- TGI (LOX IMVI melanoma): 37.9 µM
- TGI (M14 melanoma): 47.3 µM
- TGI (MALME-3M melanoma): 72.3 µM
- TGI (MCF7 breast): 74.9 µM
- TGI (MDA-MB-231 breast): 74.5 µM
- TGI (MDA-MB-435): > 100 µM
- TGI (MDA-N): 51.2 µM
- TGI (MOLT-4 leukemia): 59.1 µM
- TGI (NCI-H226 lung): 99.3 µM
- TGI (NCI-H23 lung): 69.1 µM
- TGI (NCI-H460 lung): > 100 µM
- TGI (NCI-H522 lung): 36.6 µM
- TGI (NCI/ADR-RES ovarian): 70.8 µM
- TGI (OVCAR-3 ovarian): 82.6 µM
- TGI (OVCAR-4 ovarian): 64.2 µM
- TGI (OVCAR-5 ovarian): 65.7 µM
- TGI (OVCAR-8 ovarian): 89.4 µM
- TGI (PC-3 prostate): 76.1 µM
- TGI (RPMI-8226 leukemia): > 100 µM
- TGI (RXF 393 renal): > 100 µM
- TGI (SF-268 CNS): > 100 µM
- TGI (SF-295 CNS): 70.6 µM
- TGI (SF-539 CNS): 49.7 µM
- TGI (SK-MEL-2 melanoma): 38.9 µM
- TGI (SK-MEL-28 melanoma): > 100 µM
- TGI (SK-MEL-5 melanoma): 40.7 µM
- TGI (SK-OV-3 ovarian): 82.9 µM
- TGI (SN12C renal): 94.6 µM
- TGI (SNB-19 CNS): 72.2 µM
- TGI (SNB-75 CNS): > 100 µM
- TGI (SR leukemia): > 100 µM
- TGI (SW-620 colon): > 100 µM
- TGI (T-47D breast): > 100 µM
- TGI (TK-10 renal): > 100 µM
- TGI (U251 CNS): 62.4 µM
- TGI (UACC-257 melanoma): 88.1 µM
- TGI (UACC-62 melanoma): 51.7 µM
- TGI (UO-31 renal): 92.9 µM

Structure (SMILES): Cn1c(=O)c2[nH]cnc2n(C)c1=O.[CH2-]C(Cc1cccc2cc(C(=O)O)c(=O)oc12)OC.[Hg+2].[OH-] (centres undefined)
- GI50 (786-0 renal): 16.6 µM
- TGI (786-0 renal): 30.2 µM
- GI50 (A498 renal): 18.7 µM
- TGI (A498 renal): 33 µM
- GI50 (A549 NSCLC): 19 µM
- TGI (A549 NSCLC): 37.4 µM
- GI50 (ACHN renal): 16.3 µM
- TGI (ACHN renal): 29.9 µM
- GI50 (BT-549 breast): 17.3 µM
- TGI (BT-549 breast): 31.2 µM
- GI50 (CAKI-1 renal): 18 µM
- TGI (CAKI-1 renal): 32 µM
- GI50 (CCRF-CEM leukemia): 3.21 µM
- TGI (CCRF-CEM leukemia): 18 µM
- GI50 (COLO 205 colon): 17.1 µM
- TGI (COLO 205 colon): 30.9 µM
- GI50 (DU-145 prostate): 17 µM
- TGI (DU-145 prostate): 31.6 µM
- GI50 (EKVX NSCLC): 20.7 µM
- TGI (EKVX NSCLC): 37.4 µM
- GI50 (HCC-2998 colon): 23 µM
- TGI (HCC-2998 colon): 39.2 µM
- GI50 (HCT-116 colon): 16.8 µM
- TGI (HCT-116 colon): 30.5 µM
- GI50 (HCT-15 colon): 16.6 µM
- TGI (HCT-15 colon): 30.9 µM
- GI50 (HL-60(TB) leukemia): 30.5 µM
- TGI (HL-60(TB) leukemia): 58.3 µM
- GI50 (HOP-62 NSCLC): 19.2 µM
- TGI (HOP-62 NSCLC): 41.8 µM
- GI50 (HOP-92 NSCLC): 15.6 µM
- TGI (HOP-92 NSCLC): 29.9 µM
- GI50 (HS 578T breast): 22.2 µM
- TGI (HS 578T breast): 57.3 µM
- GI50 (HT29 colon): 17.1 µM
- TGI (HT29 colon): 32 µM
- GI50 (IGROV1 ovarian): 17.3 µM
- TGI (IGROV1 ovarian): 31.4 µM
- GI50 (K-562 leukemia): 18.9 µM
- TGI (K-562 leukemia): 77.4 µM
- GI50 (KM12 colon): 17.3 µM
- TGI (KM12 colon): 32 µM
- GI50 (LOX IMVI melanoma): 16 µM
- TGI (LOX IMVI melanoma): 30.3 µM
- GI50 (M14 melanoma): 16.9 µM
- TGI (M14 melanoma): 30.7 µM
- GI50 (MALME-3M melanoma): 8.67 µM
- TGI (MALME-3M melanoma): 20.4 µM
- GI50 (MCF7 breast): 16.6 µM
- TGI (MCF7 breast): 33 µM
- GI50 (MDA-MB-231 breast): 20.9 µM
- TGI (MDA-MB-231 breast): 35.6 µM
- GI50 (MDA-MB-435): 16.9 µM
- TGI (MDA-MB-435): 30.6 µM
- GI50 (MDA-N): 17.2 µM
- TGI (MDA-N): 30.9 µM
- GI50 (MOLT-4 leukemia): 8.81 µM
- TGI (MOLT-4 leukemia): 40.5 µM
- GI50 (NCI-H226 lung): 21.4 µM
- TGI (NCI-H226 lung): 40.7 µM
- GI50 (NCI-H23 lung): 16.8 µM
- TGI (NCI-H23 lung): 30.9 µM
- GI50 (NCI-H522 lung): 15.1 µM
- TGI (NCI-H522 lung): 32.5 µM
- GI50 (NCI/ADR-RES ovarian): 19.8 µM
- TGI (NCI/ADR-RES ovarian): 38.1 µM
- GI50 (OVCAR-3 ovarian): 17.3 µM
- TGI (OVCAR-3 ovarian): 32.8 µM
- GI50 (OVCAR-4 ovarian): 17.9 µM
- TGI (OVCAR-4 ovarian): 35.8 µM
- GI50 (OVCAR-5 ovarian): 18.6 µM
- TGI (OVCAR-5 ovarian): 32.7 µM
- GI50 (OVCAR-8 ovarian): 18 µM
- TGI (OVCAR-8 ovarian): 32 µM
- GI50 (PC-3 prostate): 18 µM
- TGI (PC-3 prostate): 31.8 µM
- GI50 (RPMI-8226 leukemia): 18.2 µM
- TGI (RPMI-8226 leukemia): 65.1 µM
- GI50 (RXF 393 renal): 19.3 µM
- TGI (RXF 393 renal): 35.9 µM
- GI50 (SF-268 CNS): 16.9 µM
- TGI (SF-268 CNS): 30.6 µM
- GI50 (SF-295 CNS): 19.4 µM
- TGI (SF-295 CNS): 38 µM
- GI50 (SF-539 CNS): 14.6 µM
- TGI (SF-539 CNS): 29.8 µM
- GI50 (SK-MEL-2 melanoma): 17.4 µM
- TGI (SK-MEL-2 melanoma): 31.5 µM
- GI50 (SK-MEL-28 melanoma): 19.1 µM
- TGI (SK-MEL-28 melanoma): 33.5 µM
- GI50 (SK-MEL-5 melanoma): 17.4 µM
- TGI (SK-MEL-5 melanoma): 31.2 µM
- GI50 (SK-OV-3 ovarian): > 44 µM
- TGI (SK-OV-3 ovarian): > 58.5 µM
- GI50 (SN12C renal): 18 µM
- TGI (SN12C renal): 32.5 µM
- GI50 (SNB-19 CNS): 17.7 µM
- TGI (SNB-19 CNS): 31.6 µM
- GI50 (SNB-75 CNS): 17.7 µM
- TGI (SNB-75 CNS): 32.7 µM
- GI50 (SR leukemia): 20.8 µM
- TGI (SR leukemia): 53.8 µM
- GI50 (SW-620 colon): 10.8 µM
- TGI (SW-620 colon): 28.7 µM
- GI50 (T-47D breast): 18.9 µM
- TGI (T-47D breast): 63.5 µM
- GI50 (TK-10 renal): 19.3 µM
- TGI (TK-10 renal): 33.4 µM
- GI50 (U251 CNS): 16.3 µM
- TGI (U251 CNS): 29.8 µM
- GI50 (UACC-257 melanoma): 17.9 µM
- TGI (UACC-257 melanoma): 31.8 µM
- GI50 (UACC-62 melanoma): 17.3 µM
- TGI (UACC-62 melanoma): 31.3 µM
- GI50 (UO-31 renal): 16.1 µM
- TGI (UO-31 renal): 29.8 µM
